Assay results from PubChem BioAssay AID488792 (NMMLSC, 2010).
Activity calls are given as the source filed them.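 Rule for the calls: active = EC50 at or below 33 microM; inactive = the rest.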

system: S. cerevisiae AGP1-GFP strain, flow cytometry fluorescence, 3 h; test: potency of screening hits on AGP1-GFP expression, SAR follow-up, cell-based, flow cytometry, S. cerevisiae (AID 488792)

Row | SMILES | EC50
1 | O=[N+]([O-])c1cc(Cl)c2cccnc2c1O | 62 µM (inactive)
2 | Nc1cc(Oc2cccc(Cl)c2)nc(NCc2ccccc2)n1 | 263 µM (inactive)
3 | O=C(OCC(=O)N1CCN(C(=O)c2ccco2)CC1)c1cc(-c2ccc(F)cc2)nc2ccccc12 | 1.25 µM
4 | Cc1cc(C(=O)Nc2nc(-c3ccccn3)cs2)ccc1[N+](=O)[O-] | 57.5 µM (inactive)
5 | Cc1ccc(S(=O)(=O)c2ccc([N+](=O)[O-])cn2)cc1 | 4.42 µM
6 | CCOC(=O)CCS(=O)(=O)c1nc(-c2ccccc2)cc(C(F)(F)F)n1 | 1.41 µM
7 | Nc1nc(Nc2cccc(Cl)c2)nc(Nc2cccc(F)c2)c1[N+](=O)[O-] | 312 µM (inactive)
8 | O=C(c1ccc(C(=O)N2CCCc3ccccc32)s1)N1CCCc2ccccc21 | 0.46 µM
9 | CNc1nc(N)c([N+](=O)[O-])c(Nc2cccc(F)c2)n1 | 10.7 µM
10 | CCOC(=O)CS(=O)(=O)c1nc(-c2ccccc2)cc(C(F)(F)F)n1 | 1.74 µM
11 | CC(=O)Nc1ncnc2c1c(-c1ccc(Cl)cc1)nn2C(C)(C)C | 137 µM (inactive)
12 | CC(Oc1ccc(Br)cc1)C(=O)Nc1nc(-c2ccccn2)cs1 (stereo not given) | 102 µM (inactive)
13 | Cc1ccc2nc(Cl)c3nnnn3c2c1 | 0.24 µM
14 | COc1cccc(Nc2nc(N)c([N+](=O)[O-])c(Nc3cccc(F)c3)n2)c1 | 35 µM (inactive)
15 | C/C(=N\NC(=O)c1cccc(Br)c1)c1ccccn1 | 34.1 µM (inactive)

Other lines, results leading:

Row | EC50 | SMILES
16 | 140 µM (inactive) | Nc1nc(Nc2ccccc2)nc(Nc2cccc(F)c2)c1[N+](=O)[O-]
17 | 98.6 µM (inactive) | Cc1ccc(C(c2cc(Cl)c3cccnc3c2O)N2CCN(C)CC2)cc1 (stereo not given)
18 | 34.8 µM (inactive) | O=C(Oc1c(Cl)cc(Cl)c2cccnc12)c1cccc([N+](=O)[O-])c1
19 | 4.22 µM | CC(=O)c1ccc(N2CCN(C(=O)c3ccc(Br)cc3)CC2)c(F)c1
20 | 2.44 µM | O=C(OCn1ncc(Br)c(Br)c1=O)c1c(F)cccc1F
21 | 174 µM (inactive) | CC(C)(C)n1nc(-c2ccc(F)cc2)c2c(N)ncnc21
22 | 14.1 µM | CN1CCN(C(=O)c2cc(COc3c(F)cccc3F)on2)CC1c1ccccc1 (stereo not given)
23 | 34.5 µM (inactive) | CC(C)(C)C(=O)NC(=S)NNC(=O)c1ccc(-c2ccccc2)cc1
24 | 2.09 µM | CC(C)(C)C(=O)C(Cl)C(=O)Nc1ccccc1 (stereo not given)
25 | 10.8 µM | CC(C)(C)n1nc(-c2ccc(Cl)cc2)c2c(N)ncnc21
26 | 34.3 µM (inactive) | O=[N+]([O-])c1cc(O)c2ncccc2c1
27 | 0.3 µM | COC(=O)CCS(=O)(=O)c1nc(-c2ccccc2)cc(C(F)(F)F)n1
28 | 105 µM (inactive) | Cn1ncc(S(=O)(=O)Cc2ccccc2)c(Cl)c1=O
29 | 72.9 µM (inactive) | O=C(Nc1nc(-c2ccccn2)cs1)C1COc2ccccc2O1 (stereo not given)
30 | 60.4 µM (inactive) | CC(=O)SC(C[N+](=O)[O-])c1cn(C(C)=O)c2ccccc12 (stereo not given)
31 | 63.1 µM (inactive) | CCC(C)Nc1nc(N)c([N+](=O)[O-])c(Nc2cccc(F)c2)n1 (stereo not given)
32 | 5.98 µM | O=[N+]([O-])c1ccc(O)c2ncccc12
33 | 300 µM (inactive) | Cc1ccc(-c2nn(C(C)(C)C)c3ncnc(N)c23)cc1
34 | 32.2 µM | CCN(CC)C(=O)Oc1ccnc2cc(Cl)ccc12
35 | 36.5 µM (inactive) | O=C(OCC(=O)N1CCN(C(=O)c2ccco2)CC1)c1cc(-c2cccc(Br)c2)nc2ccccc12
